In the NIST ThermoML archive (doi:10.1016/j.jct.2017.11.002):
± gives the expanded uncertainty stated by the source.

Tests used:
[1] = molar enthalpy of vaporization or sublimation; conditions: 298.15 K; Crystal; Static calorimetry
[2] = Crystal, Calculated from knudsen effusion weight loss

molar enthalpy [1] [kcal/mol]	vapor or sublimation pressure ([2]; 394.16 K) [kPa]	vapor or sublimation pressure ([2]; 396.13 K) [kPa]	vapor or sublimation pressure ([2]; 398.11 K) [kPa]	vapor or sublimation pressure ([2]; 400.15 K) [kPa]	vapor or sublimation pressure ([2]; 402.1 K) [kPa]	vapor or sublimation pressure ([2]; 404.1 K) [kPa]	vapor or sublimation pressure ([2]; 406.15 K) [kPa]	vapor or sublimation pressure ([2]; 408.13 K) [kPa]	vapor or sublimation pressure ([2]; 410.11 K) [kPa]	vapor or sublimation pressure ([2]; 412.16 K) [kPa]	vapor or sublimation pressure ([2]; 414.11 K) [kPa]	vapor or sublimation pressure ([2]; 416.12 K) [kPa]	Compound
31.9 ± 1	–	–	–	–	–	–	–	–	–	–	–	–	O=c1c2ccccc2[nH]c2ccccc12 [9(10H)-acridinone]
29.6 ± 0.693	0.0001465 ± 6e-05	0.0001788 ± 6e-05	0.0002123 ± 6.1e-05	0.0002508 ± 6.1e-05	0.0003035 ± 6.1e-05	0.0003591 ± 6.1e-05	0.0004322 ± 6.2e-05	0.000516 ± 6.3e-05	0.0005963 ± 6.4e-05	0.0007321 ± 6.5e-05	0.0008616 ± 6.7e-05	0.00101 ± 9.3e-05	Cn1c2ccccc2c(=O)c2ccccc21 [N-methylacridone]
